Results on 20 compounds are retold here after patent US12209096B2, “Compounds and compositions for inducing chondrogenesis” (NOVARTIS AG, priority 2017, dated 2025).

In general, EC50 refers to the concentration at which the effect is half-maximal.

The experiment has as its system NHACs. Kind of experiment: calcium flux assay. In kind it is cell-based, human. The following applies: for Emax: read-out: (A) % Efficacy. The procedure: NHACs were plated in 1536 Greiner plate at 2000 cells/well in 4 ul volume. 24 hours later, 4 ul of Calcium 5 dye solution (Hank's Balanced Salt/HEPES buffer containing 5 mM of Probenecid) was then added and incubated for 1 hour at room temperature. Fluorescence readings at excitation wavelength of 470-495 nm and emission wavelength of 515-575 nm were done using FLIPR high-throughput screening system (Molecular Devices, Sunnyvale, CA). The test compound was then added to each well at the indicated dose. Signal was measured prior compound dispense and after using a first interval of 1 second for 60 reads and second interval of 3 second for 20 reads. Data was analyzed using Molecular Devices ScreenWorks® Software.
(In general: A change in cytosolic calcium serves as a functional read-out for many receptors and channels.)

Where two headings read alike, the source gives them in different places.

Turning to `Cc1cc([C@H]2[C@H]3O[C@H](C[C@@H]3O)[C@H]2C(=O)Nc2cnc(C)c(Cl)c2)ccn1` [Example 5, (1R,2S,3S,4R,5S)-N-(5-chloro-6-methylpyridin-3-yl)-5-hydroxy-3-(2-methylpyridin-4-yl)-7-oxabicyclo[2.2.1]heptane-2-carboxamide], where the note is “Homo sapiens”, the EC50 is over 50 µM and the Emax worked out at 18%.

On to `Cc1cc([C@H]2[C@H]3O[C@H](C[C@@H]3O)[C@H]2C(=O)Nc2ccc(Cl)c(Cl)c2)ccn1` (racemic) [Example 53, rac-(1R,2S,3S,4R,5S)—N-(3,4-dichlorophenyl)-5-hydroxy-3-(2-methylpyridin-4-yl)-7-oxabicyclo[2.2.1]heptane-2-carboxamide], for which, where the note is “Homo sapiens”, the 50% effective concentration (EC50) is over 50 µM and the Emax was 43%.

Turning to `Cc1cc([C@H]2[C@H]3O[C@H](C[C@@H]3F)[C@H]2C(=O)Nc2cnc(Cl)c(Cl)c2)ccn1` [Example 18, (1R,2S,3S,4R,5S)-N-(5,6-dichloropyridin-3-yl)-5-fluoro-3-(2-methylpyridin-4-yl)-7-oxabicyclo[2.2.1]heptane-2-carboxamide], where the note is “Homo sapiens”, the EC50 was over 50 µM and the Emax stood at 0%.

On to `CN[C@@H]1C[C@H]2O[C@@H]1[C@H](c1ccnc(C)c1)[C@H]2C(=O)Nc1ccc(Cl)c(Cl)c1` [Example 167, (1R,2R,3S,4R,5R)—N-(3,4-dichlorophenyl)-5-(methylamino)-3-(2-methylpyridin-4-yl)-7-oxabicyclo[2.2.1]heptane-2-carboxamide], for which, where the note is “Homo sapiens”, the EC50 worked out at 6.9 µM and the Emax came out at 83%.

With `Cc1cc([C@H]2[C@H]3O[C@H](C[C@H]3F)[C@@H]2C(=O)Nc2ccc(Cl)c(Cl)c2)ccn1` (single isomer, unassigned) [Example 92], where the note is “Homo sapiens”, the EC50 is over 50 µM and the Emax was determined as 57%.

Consider `O=C(Nc1cnc(Cl)c(Cl)c1)[C@@H]1[C@@H](c2ccnc(F)c2)[C@H]2O[C@@H]1C[C@H]2NCCO` [Example 176, (1R,2R,3S,4R,5R)—N-(5,6-dichloropyridin-3-yl)-3-(2-fluoropyridin-4-yl)-5-((2-hydroxyethyl)amino)-7-oxabicyclo[2.2.1]heptane-2-carboxamide], for which, under “Homo sapiens”, the 50% effective concentration (EC50) came out at 25 µM and the Emax was 51%.

As for `Cc1cc([C@H]2[C@H]3O[C@H]([C@@H]4C[C@@H]43)[C@@H]2C(=O)Nc2ccc(Cl)c(F)c2)ccn1` [Example 68, (1S,2S,4R,5R,6R,7S)—N-(4-chloro-3-fluorophenyl)-7-(2-methylpyridin-4-yl)-8-oxatricyclo[3.2.1.0^2,4]octane-6-carboxamide], for the setting “Homo sapiens”, the EC50 was 15 µM and the Emax is 306%.

Turning to `O=C(Nc1ccc(Cl)c(Cl)c1)[C@H]1[C@@H](c2cncnc2)[C@H]2O[C@@H]1C[C@@H]2O` [Example 51, (1R,2S,3S,4R,5S)—N-(3,4-dichlorophenyl)-5-hydroxy-3-(pyrimidin-5-yl)-7-oxabicyclo[2.2.1]heptane-2-carboxamide], where the note is “Homo sapiens”, the EC50 is over 50 µM and the Emax came out at 0%.

Regarding `COc1ccc(NC(=O)[C@@H]2[C@@H]3O[C@@H]([C@H]4C[C@H]43)[C@@H]2c2ccc(C)nc2)cn1` [Example 31, (1S,2S,4R,5R,6S,7S)-N-(6-methoxypyridin-3-yl)-7-(6-methylpyridin-3-yl)-8-oxatricyclo[3.2.1.0^2,4]octane-6-carboxamide], for the setting “Homo sapiens”, the half-maximal effective concentration (EC50) was over 50 µM and the Emax is 0%.

For the compound “(1R,2S,3S,4R,5S)-5-hydroxy-3-(pyridin-4-yl)-N-[3-(trifluoromethyl)phenyl]-7-oxabicyclo[2.2.1]heptane-2-carboxamide [Example 11]”, the “(A) % Efficacy” value is 27% and the concentration for a half-maximal effect (EC50) is over 50 µM.

On to `COc1ccc(NC(=O)[C@@H]2[C@@H]3O[C@@H]([C@H]4C[C@H]43)[C@@H]2c2cccc(C(F)(F)F)n2)cn1` [Example 35, (1S,2S,4R,5R,6S,7S)—N-(6-methoxypyridin-3-yl)-7-(6-(trifluoromethyl)pyridin-2-yl)-8-oxatricyclo[3.2.1.0^2,4]octane-6-carboxamide], for which, for the setting “Homo sapiens”, the EC50 was over 50 µM and the Emax turned out to be 0%.

Turning to `Nc1ncc([C@H]2[C@H]3O[C@H]([C@@H]4C[C@@H]43)[C@H]2C(=O)Nc2ccc(Cl)c(Cl)c2)cn1` [Example 39, (1S,2S,4R,5R,6S,7S)-7-(2-aminopyrimidin-5-yl)-N-(3,4-dichlorophenyl)-8-oxatricyclo[3.2.1.0^2,4]octane-6-carboxamide], for the setting “Homo sapiens”, the concentration giving a half-maximal response (EC50) was determined as 0.53 µM and the Emax came out at 40%.

For the compound `Cc1cc([C@H]2[C@H](C(=O)Nc3ccc(Cl)c(Cl)c3)[C@H]3O[C@@H]2C[C@H]3F)ccn1` (single isomer, unassigned) [Example 95], for the setting “Homo sapiens”, the half-maximal effective concentration (EC50) was determined as 11 µM and the Emax is 113%.

Turning to `O=C(Nc1ccc(Cl)c(Cl)c1)[C@H]1[C@@H]2O[C@@H]([C@H]3C[C@H]32)[C@@H]1c1cnc(N2CCOCC2)nc1` [Example 133, (1S,2S,4R,5R,6R,7S)—N-(3,4-dichlorophenyl)-7-(2-morpholinopyrimidin-5-yl)-8-oxatricyclo[3.2.1.0^2,4]octane-6-carboxamide], where the note is “Homo sapiens”, the concentration giving a half-maximal response (EC50) came out at 25 µM and the Emax is 158%.

In the case of `COc1cc([C@H]2[C@H]3O[C@H]([C@@H]4C[C@@H]43)[C@@H]2C(=O)Nc2ccc(Cl)c(Cl)c2)ccn1` [Example 118, (1S,2S,4R,5R,6R,7S)—N-(3,4-dichlorophenyl)-7-(2-methoxypyridin-4-yl)-8-oxatricyclo[3.2.1.0^2,4]octane-6-carboxamide], for the setting “Homo sapiens”, the 50% effective concentration (EC50) was determined as 8.2 µM and the Emax was found to be 118%.

Take `Cc1cc([C@H]2[C@H]3O[C@H]([C@@H]4C[C@@H]43)[C@@H]2C(=O)Nc2ccc(Cl)cc2C#N)ccn1` [Example 67, (1S,2S,4R,5R,6R,7S)—N-(4-chloro-2-cyanophenyl)-7-(2-methylpyridin-4-yl)-8-oxatricyclo[3.2.1.0^2,4]octane-6-carboxamide]: under “Homo sapiens”, the EC50 was over 50 µM and the Emax was determined as 39%.

Turning to `CN(C)[C@@H]1C[C@H]2O[C@@H]1[C@H](c1ccnc(F)c1)[C@H]2C(=O)Nc1cnc(Cl)c(Cl)c1` [Example 175, (1R,2R,3S,4R,5R)—N-(5,6-dichloropyridin-3-yl)-5-(dimethylamino)-3-(2-fluoropyridin-4-yl)-7-oxabicyclo[2.2.1]heptane-2-carboxamide], where the note is “Homo sapiens”, the EC50 was determined as 29 µM and the Emax was 186%.

In the case of `O=C(Nc1ccc(Cl)c(Cl)c1)[C@H]1[C@@H]2O[C@@H]([C@H]3C[C@H]32)[C@@H]1c1cncnc1` (single isomer, unassigned) [Example 126a], under “Homo sapiens”, the EC50 is 5.4 µM and the Emax was determined as 233%.

Consider `Cc1cc([C@H]2[C@H]3O[C@H](C[C@H]3F)[C@@H]2C(=O)Nc2cnc(Cl)c(Cl)c2)ccn1` [Example 98, (1R,2R,3S,4R,5R)—N-(5,6-dichloropyridin-3-yl)-5-fluoro-3-(2-methylpyridin-4-yl)-7-oxabicyclo[2.2.1]heptane-2-carboxamide], for which, under “Homo sapiens”, the concentration for a half-maximal effect (EC50) worked out at 21 µM and the Emax amounted to 404%.

For the compound `O=C(Nc1cnc(Cl)c(Cl)c1)[C@H]1[C@@H]2O[C@@H]([C@H]3C[C@H]32)[C@@H]1c1ccnc(F)c1F` (single isomer, unassigned) [Example 72], where the note is “Homo sapiens”, the concentration giving a half-maximal response (EC50) came to 7.7 µM and the Emax amounted to 208%.
